What was measured:
[1] = Solubility of triptorelin in hexyl substituted polylactide polymer; format: physicochemical
Excerpt: Triptorelin is not soluble in the hexyl substituted polylactide polymer (which is a viscous liquid) because of its relatively high hydrophilicity. The lyophilized triptorelin was therefore micronized, by cryomilling or spray-drying, to ensure small particle size for incorporation into the polymer. Preferably the triptorelin (or salt/derivative thereof) is micronized/mixed with the polylactide at a temperature below the glass transition temperature of the polylactide, more preferably at temperature of around −196° C., so as to avoid melting and resulting increased viscosity of the polylactide.

[2] = Particle size distribution by optical microscopy (diameter of the coextensive circle); format: physicochemical
Experimental: Two different methods were used to incorporate triptorelin into the hexyl substituted polylactide polymer. The first was a “separate milling and mixing” method in which the triptorelin was micronized using an SPEX 6700 Freezer/mill at −196° C. in liquid nitrogen (milling for 5 min), the resulting micronized powder being mixed with the hexyl substituted polylactide polymer by kneading in plastic bags until a homogeneous formulation was obtained (as verified by optical microscopy).
In the second method, lyophilised triptorelin (10% by weight of polymer or 5% by weight polymer or 2.5% by weight polymer) was incorporated into the polymer by a combined direct “cryo-milling-mixing” technique. The triptorelin was micronized together with the polymer in a cryo-mill (SPEX 6700 Freezer/mill) at −196 C for five minutes in liquid nitrogen. The particle size distribution in the formulations was analysed using an Optishot-2 microscope (Nikon, Tokyo, Japan) and ImageJ software.
The kneading provided a homogenous suspension (FIG. 1a) although the average diameter increased to 9.0 μm because some larger particles of more than 30 μm were formed due to agglomeration.

## CC(C)C[C@H](NC(=O)[C@@H](Cc1c[nH]c2ccccc12)NC(=O)[C@H](Cc1ccc(O)cc1)NC(=O)[C@H](CO)NC(=O)[C@H](Cc1c[nH]c2ccccc12)NC(=O)[C@H](Cc1c[nH]cn1)NC(=O)[C@@H]1CCC(=O)N1)C(=O)N[C@@H](CCCNC(=N)N)C(=O)N1CCC[C@H]1C(=O)NCC(N)=O [Triptorelin, L-Pyroglutamyl-L-histidyl-Ltryptophyl-L-seryl-L-tyrosyl-D-tryptophyl-L-eucy-L-arginy-L-prolyl-glycinamide]
[1]
  solubility in the hexyl substituted polylactide polymer: not soluble
[2]
  average diameter for the coextensive circle: 5.6 μm
